Common to all, as to experiment: inside-out patch clamp, macroscopic current
What all share (format): biochemical

For experiment [1], the target named is T1, WT-nzCFTR (native form of zebrafish CFTR) (Danio rerio, UniProt Q1LX78).
T1 construct: full-length wild type, native (not codon-optimized) cDNA from M. Bagnat lab, co-transfected with peGFP-C3 in CHO cells; PKA-phosphorylated in patches
T1 sequence (Q1LX78 1-1485): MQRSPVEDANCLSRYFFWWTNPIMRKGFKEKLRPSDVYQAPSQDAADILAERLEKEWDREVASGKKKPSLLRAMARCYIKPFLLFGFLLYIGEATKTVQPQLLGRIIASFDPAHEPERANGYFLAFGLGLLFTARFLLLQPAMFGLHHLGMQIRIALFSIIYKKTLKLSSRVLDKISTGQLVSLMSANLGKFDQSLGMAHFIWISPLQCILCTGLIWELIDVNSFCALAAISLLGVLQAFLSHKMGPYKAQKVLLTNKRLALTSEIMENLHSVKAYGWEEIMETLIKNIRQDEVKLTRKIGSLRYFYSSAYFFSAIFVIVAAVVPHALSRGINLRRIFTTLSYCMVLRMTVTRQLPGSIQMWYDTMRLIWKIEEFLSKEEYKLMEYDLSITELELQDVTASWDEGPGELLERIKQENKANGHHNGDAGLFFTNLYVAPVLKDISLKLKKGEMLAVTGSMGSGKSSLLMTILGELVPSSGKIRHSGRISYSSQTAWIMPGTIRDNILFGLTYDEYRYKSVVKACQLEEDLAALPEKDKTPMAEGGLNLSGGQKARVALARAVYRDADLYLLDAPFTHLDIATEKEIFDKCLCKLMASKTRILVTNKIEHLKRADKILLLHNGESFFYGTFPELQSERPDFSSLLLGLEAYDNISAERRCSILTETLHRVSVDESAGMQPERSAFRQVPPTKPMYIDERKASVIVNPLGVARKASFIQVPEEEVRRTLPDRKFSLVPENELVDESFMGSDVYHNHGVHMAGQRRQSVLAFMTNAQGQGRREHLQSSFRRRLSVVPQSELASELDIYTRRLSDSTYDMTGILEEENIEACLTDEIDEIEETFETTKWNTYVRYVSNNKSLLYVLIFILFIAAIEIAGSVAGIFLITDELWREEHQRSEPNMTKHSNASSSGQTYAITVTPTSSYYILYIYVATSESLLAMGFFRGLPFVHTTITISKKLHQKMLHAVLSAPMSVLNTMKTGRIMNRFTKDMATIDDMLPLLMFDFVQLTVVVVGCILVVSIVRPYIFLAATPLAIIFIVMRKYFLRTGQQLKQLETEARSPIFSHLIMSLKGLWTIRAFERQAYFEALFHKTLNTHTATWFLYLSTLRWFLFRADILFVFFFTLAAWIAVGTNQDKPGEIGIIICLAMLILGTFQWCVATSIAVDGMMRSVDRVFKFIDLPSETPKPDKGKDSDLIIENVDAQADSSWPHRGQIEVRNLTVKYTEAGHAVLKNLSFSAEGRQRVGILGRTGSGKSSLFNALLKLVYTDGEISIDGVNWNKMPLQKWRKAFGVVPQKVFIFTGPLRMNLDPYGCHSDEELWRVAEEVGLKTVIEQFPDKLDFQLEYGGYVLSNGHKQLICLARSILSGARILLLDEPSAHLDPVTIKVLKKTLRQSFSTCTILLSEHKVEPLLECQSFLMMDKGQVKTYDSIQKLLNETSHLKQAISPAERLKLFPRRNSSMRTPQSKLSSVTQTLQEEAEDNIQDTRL
The following applies: 10 μM inhibitor, PKA-phosphorylated channel, pH 7.4, 22-24 °C.

Experiment [2] concerns the target T2, WT-zCFTR (codon optimized zebrafish CFTR) (Danio rerio, UniProt Q1LX78).
T2 construct: full-length wild type, codon-optimized cDNA (from J. Chen), co-transfected with peGFP-C3 in CHO cells; PKA-phosphorylated in patches
T2 sequence (Q1LX78 1-1485): T1 sequence (Q1LX78 1-1485)
The conditions noted are these: 10 μM inhibitor, PKA-phosphorylated channel, pH 7.4, 22-24 °C.

In experiment [3] the target is T2, WT-zCFTR (codon optimized zebrafish CFTR). The following applies: 50 μM P-ATP relative to 2 mM ATP, PKA-phosphorylated channel, pH 7.4.

With `O=C(O)c1ccc(/C=C2\SC(=S)N(c3cccc(C(F)(F)F)c3)C2=O)cc1` [CFTRinh-172], the figures for the “inhibition ratio at 10 μM” value in experiment [1] and in experiment [2] were 0.30 ± 0.04 and 0.27 ± 0.03, respectively.

`O=P(O)(O)OP(=O)(O)OP(=O)(O)OC[C@H]1O[C@@H](n2cnc3c(NCCc4ccccc4)ncnc32)[C@H](O)[C@@H]1O` [N6‐Phenylethyl‐ATP]: the IP-ATP/IATP in experiment [3] was 0.88 ± 0.04.

The values above are taken from publication PMC6312236, “Functional characterization reveals that zebrafish CFTR prefers to occupy closed channel conformations” (PLoS ONE, 2018).
